Measurements from article PMC9326368, “A Novel PARP Inhibitor YHP-836 For the Treatment of BRCA-Deficiency Cancers” (Frontiers in Pharmacology, 2022).

Columns and labels:
[1] = biological target: PARP1 (Homo sapiens, UniProt P09874); assay: PARP1 enzymatic assay on histone-coated plate with NAD+, PAR product detection; assay type: biochemical
[2] = biological target: PARP2 (Homo sapiens, UniProt Q9UGN5); assay: PARP2 enzymatic assay on histone-coated plate with NAD+, PAR product detection; assay type: biochemical
Chain of PARP2 (Q9UGN5 whole entry): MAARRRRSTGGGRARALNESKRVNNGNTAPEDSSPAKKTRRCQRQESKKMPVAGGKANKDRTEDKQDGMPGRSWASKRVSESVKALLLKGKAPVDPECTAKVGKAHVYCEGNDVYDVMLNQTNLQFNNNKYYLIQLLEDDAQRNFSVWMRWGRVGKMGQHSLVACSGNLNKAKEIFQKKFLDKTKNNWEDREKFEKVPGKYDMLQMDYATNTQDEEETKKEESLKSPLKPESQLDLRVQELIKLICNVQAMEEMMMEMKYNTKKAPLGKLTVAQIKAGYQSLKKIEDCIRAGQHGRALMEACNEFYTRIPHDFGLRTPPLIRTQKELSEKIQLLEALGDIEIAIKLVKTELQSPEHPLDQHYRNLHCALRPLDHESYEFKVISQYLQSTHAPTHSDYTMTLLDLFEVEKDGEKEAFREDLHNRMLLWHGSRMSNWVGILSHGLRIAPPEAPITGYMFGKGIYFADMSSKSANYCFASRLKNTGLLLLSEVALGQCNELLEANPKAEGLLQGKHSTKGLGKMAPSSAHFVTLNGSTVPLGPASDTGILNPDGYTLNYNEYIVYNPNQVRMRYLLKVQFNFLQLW

Chain of PARP1 (P09874 2-1014): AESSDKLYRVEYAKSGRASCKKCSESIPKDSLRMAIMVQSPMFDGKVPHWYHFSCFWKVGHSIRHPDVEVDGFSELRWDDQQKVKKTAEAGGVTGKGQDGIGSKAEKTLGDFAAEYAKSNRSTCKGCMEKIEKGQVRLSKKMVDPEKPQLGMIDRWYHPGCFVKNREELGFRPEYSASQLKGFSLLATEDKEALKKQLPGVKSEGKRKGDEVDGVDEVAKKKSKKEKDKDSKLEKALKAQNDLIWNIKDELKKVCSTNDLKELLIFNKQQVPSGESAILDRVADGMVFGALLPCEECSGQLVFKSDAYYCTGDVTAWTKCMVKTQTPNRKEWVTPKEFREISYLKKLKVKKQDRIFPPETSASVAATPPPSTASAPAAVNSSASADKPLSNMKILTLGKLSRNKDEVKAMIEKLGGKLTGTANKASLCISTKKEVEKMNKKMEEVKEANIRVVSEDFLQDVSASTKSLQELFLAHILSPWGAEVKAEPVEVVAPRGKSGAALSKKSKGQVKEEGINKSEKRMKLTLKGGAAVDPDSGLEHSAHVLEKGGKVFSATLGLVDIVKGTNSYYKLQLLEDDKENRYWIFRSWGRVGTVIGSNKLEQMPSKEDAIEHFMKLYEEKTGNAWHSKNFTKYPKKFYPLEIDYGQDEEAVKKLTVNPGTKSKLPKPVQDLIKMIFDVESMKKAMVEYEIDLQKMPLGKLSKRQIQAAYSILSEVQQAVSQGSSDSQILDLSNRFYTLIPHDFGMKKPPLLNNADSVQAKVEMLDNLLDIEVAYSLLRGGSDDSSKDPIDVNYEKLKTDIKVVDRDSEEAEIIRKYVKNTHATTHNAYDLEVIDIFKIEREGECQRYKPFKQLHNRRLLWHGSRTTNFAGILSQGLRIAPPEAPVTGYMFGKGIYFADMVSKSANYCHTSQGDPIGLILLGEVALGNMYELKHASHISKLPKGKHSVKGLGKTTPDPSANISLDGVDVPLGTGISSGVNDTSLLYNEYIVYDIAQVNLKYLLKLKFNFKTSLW

IC50 [1]: 6.33 nM | IC50 [2]: 3.62 nM
SMILES: O=C(c1cc(Cn2c(=O)[nH]c(=O)c3ccccc32)ccc1F)N1CCN(CC(F)(F)F)CC1 [YHP-836]
